Strand notation (5' to 3'): a small letter for the sugar, then the base; units joined by * are phosphorothioate-linked, units joined directly phosphodiester-linked; [ ] holds rarer units or linkages, { } end groups; capitals alone tell only the bases. e = 2'-O-(2-methoxyethyl) (MOE); [5mC] = 5-methylcytosine; d = 2'-deoxy (DNA)
Key:
Assay type in all cases: in vivo
[1] = Liver function, ALT, AST, bilirubin in cynomolgus monkeys (Example 46); settings: plasma
Procedure: (§1) Groups, each consisting of two male and two female monkeys, were injected subcutaneously with 25 mg/kg of ISIS 416850, ISIS 449709, ISIS 445522, ISIS 449710, ISIS 449707, ISIS 449711, ISIS 449708, 416858, and ISIS 445531. Antisense oligonucleotide was administered to the monkeys at 25 mg/kg three times per week for week 1 and 25 mg/kg twice per week for weeks 2 to 8. A control group, consisting of two male and two female monkeys was injected subcutaneously with PBS according to the same dosing regimen. Body weights were taken 14 days and 7 days before the start of treatment and were then measured weekly throughout the treatment period. Blood samples were collected 14 days and 5 days before the start of treatment and subsequently several times during the dosing regimen for PT and aPTT measurements, and measurement of various hematologic factors. On day 55, the monkeys were euthanized by exsanguination while under deep anesthesia, and organs harvested for further analysis.
Plasma concentrations of alanine transaminase (ALT) and aspartate transaminase (AST) were measured and the results are presented in Tables 152 and 153 expressed in IU/L. Plasma levels of bilirubin were also measured and results are presented in Table 154 expressed in mg/dL. As observed in Tables 152-154, there were no significant increases in any of the liver metabolic markers after antisense oligonucleotide treatment.

[2] = Body and organ weights of cynomolgus monkeys (Example 46); set-up: Liver weight / Spleen weight / Kidney weight: unit not given here
Procedure: as §1
Organ weights were taken after the animals were euthanized on day 55, and livers, kidneys and spleens were harvested.

[3] = Kidney function, BUN, urine protein to creatinine ratio in cynomolgus monkeys (Example 46); settings: for Urine protein/creatinine ratio: day 49
Procedure: as §1
To evaluate the impact of ISIS oligonucleotides on kidney function, urine samples were collected on different days. […] The ratio of urine protein to creatinine in urine samples after antisense oligonucleotide treatment was also calculated for day 49 and results are presented in Table 156. As observed in Tables 155 and 156, there were no significant increases in any of the kidney metabolic markers after antisense oligonucleotide treatment.

[4] = Day −5 (before start of treatment)
[5] = Day −14 (before start of treatment)

ISIS 449710: 3-8-3, 4-8-4, 2-10-2, 3-10-3 or 4-10-4 MOE microwalk gapmer (Table 46) (antisense e[5mC]*eA*e[5mC]*dA*dG*dT*dT*dT*d[5mC]*dT*dG*dG*d[5mC]*eA*eG*eG)
ALT ([1]; Day 31): 37 IU/L | AST ([1]; Day 31): 37 IU/L | Bilirubin ([1]; Day 31): 0.15 mg/dL | ALT ([1]; Day 55): 45 IU/L | AST ([1]; Day 55): 64 IU/L | Bilirubin ([1]; Day 55): 0.22 mg/dL | ALT ([1]; Day −5): 42 IU/L | AST ([1]; Day −5): 38 IU/L | Bilirubin ([1]; Day −5): 0.19 mg/dL | ALT ([1]; Day −14): 37 IU/L | AST ([1]; Day −14): 52 IU/L | Bilirubin ([1]; Day −14): 0.24 mg/dL | body weight ([2]; day 1): 2131 g | body weight ([2]; day 8): 2120 g | body weight ([2]; day 15): 2145 g | body weight ([2]; day 22): 2177 g | body weight ([2]; day 29): 2149 g | body weight ([2]; day 36): 2180 g | body weight ([2]; day 43): 2227 g | body weight ([2]; day 50): 2201 g | Kidney weight ([2]; day 55, after euthanasia): 0.58 | Liver weight ([2]; day 55, after euthanasia): 2.6 | Spleen weight ([2]; day 55, after euthanasia): 0.24 | body weight ([2]; day −7): 2114 g | body weight ([2]; day −14): 2097 g | BUN levels ([3]; Day 31): 19 mg/dL | BUN levels ([3]; Day 55): 23 mg/dL | BUN levels [3, 4]: 19 mg/dL | BUN levels [3, 5]: 19 mg/dL | Urine protein/creatinine ratio [3]: 0.00

ISIS 416850: MOE gapmer, nucleobases 1275 to 1318 of SEQ ID NO: 1 (Table 8) (antisense TGCACAGTTTCTGGCAGGCC; MOE gapmer, wing and gap sizes not given here)
ALT ([1]; Day 31): 45 IU/L | AST ([1]; Day 31): 46 IU/L | Bilirubin ([1]; Day 31): 0.26 mg/dL | ALT ([1]; Day 55): 55 IU/L | AST ([1]; Day 55): 57 IU/L | Bilirubin ([1]; Day 55): 0.17 mg/dL | ALT ([1]; Day −5): 42 IU/L | AST ([1]; Day −5): 45 IU/L | Bilirubin ([1]; Day −5): 0.22 mg/dL | ALT ([1]; Day −14): 48 IU/L | AST ([1]; Day −14): 62 IU/L | Bilirubin ([1]; Day −14): 0.26 mg/dL | body weight ([2]; day 1): 2083 g | body weight ([2]; day 8): 2072 g | body weight ([2]; day 15): 2147 g | body weight ([2]; day 22): 2139 g | body weight ([2]; day 29): 2159 g | body weight ([2]; day 36): 2136 g | body weight ([2]; day 43): 2186 g | body weight ([2]; day 50): 2143 g | Kidney weight ([2]; day 55, after euthanasia): 0.51 | Liver weight ([2]; day 55, after euthanasia): 2.5 | Spleen weight ([2]; day 55, after euthanasia): 0.17 | body weight ([2]; day −7): 2074 g | body weight ([2]; day −14): 2061 g | BUN levels ([3]; Day 31): 21 mg/dL | BUN levels ([3]; Day 55): 26 mg/dL | BUN levels [3, 4]: 23 mg/dL | BUN levels [3, 5]: 24 mg/dL | Urine protein/creatinine ratio [3]: 0.08

ISIS 445531: 5-8-5 or 6-8-6 MOE microwalk gapmer (Table 44) (antisense eG*eG*e[5mC]*eA*eT*dT*dG*dG*dT*dG*d[5mC]*dA*d[5mC]*eA*eG*eT*eT*eT)
ALT ([1]; Day 31): 57 IU/L | AST ([1]; Day 31): 47 IU/L | Bilirubin ([1]; Day 31): 0.13 mg/dL | ALT ([1]; Day 55): 73 IU/L | AST ([1]; Day 55): 49 IU/L | Bilirubin ([1]; Day 55): 0.11 mg/dL | ALT ([1]; Day −5): 73 IU/L | AST ([1]; Day −5): 46 IU/L | Bilirubin ([1]; Day −5): 0.18 mg/dL | ALT ([1]; Day −14): 84 IU/L | AST ([1]; Day −14): 78 IU/L | Bilirubin ([1]; Day −14): 0.22 mg/dL | body weight ([2]; day 1): 2125 g | body weight ([2]; day 8): 2119 g | body weight ([2]; day 15): 2109 g | body weight ([2]; day 22): 2143 g | body weight ([2]; day 29): 2148 g | body weight ([2]; day 36): 2191 g | body weight ([2]; day 43): 2233 g | body weight ([2]; day 50): 2197 g | Kidney weight ([2]; day 55, after euthanasia): 0.49 | Liver weight ([2]; day 55, after euthanasia): 2.8 | Spleen weight ([2]; day 55, after euthanasia): 0.24 | body weight ([2]; day −7): 2092 g | body weight ([2]; day −14): 2079 g | BUN levels ([3]; Day 31): 20 mg/dL | BUN levels ([3]; Day 55): 22 mg/dL | BUN levels [3, 4]: 18 mg/dL | BUN levels [3, 5]: 22 mg/dL | Urine protein/creatinine ratio [3]: 0.08

ISIS 449711: 3-8-3, 4-8-4, 2-10-2, 3-10-3 or 4-10-4 MOE microwalk gapmer (Table 46) (antisense eA*e[5mC]*dA*dG*dT*dT*dT*d[5mC]*dT*dG*dG*d[5mC]*eA*eG)
ALT ([1]; Day 31): 48 IU/L | AST ([1]; Day 31): 47 IU/L | Bilirubin ([1]; Day 31): 0.13 mg/dL | ALT ([1]; Day 55): 54 IU/L | AST ([1]; Day 55): 47 IU/L | Bilirubin ([1]; Day 55): 0.13 mg/dL | ALT ([1]; Day −5): 137 IU/L | AST ([1]; Day −5): 78 IU/L | Bilirubin ([1]; Day −5): 0.16 mg/dL | ALT ([1]; Day −14): 49 IU/L | AST ([1]; Day −14): 58 IU/L | Bilirubin ([1]; Day −14): 0.23 mg/dL | Spleen weight ([2]; cynomolgus monkeys, 25 mg/kg, day 55, compared to the PBS control): caused increase in spleen weight | body weight ([2]; day 1): 2123 g | body weight ([2]; day 8): 2123 g | body weight ([2]; day 15): 2103 g | body weight ([2]; day 22): 2171 g | body weight ([2]; day 29): 2203 g | body weight ([2]; day 36): 2227 g | body weight ([2]; day 43): 2251 g | body weight ([2]; day 50): 2227 g | Kidney weight ([2]; day 55, after euthanasia): 0.54 | Liver weight ([2]; day 55, after euthanasia): 2.6 | Spleen weight ([2]; day 55, after euthanasia): 0.32 | body weight ([2]; day −7): 2105 g | body weight ([2]; day −14): 2049 g | BUN levels ([3]; Day 31): 20 mg/dL | BUN levels ([3]; Day 55): 23 mg/dL | BUN levels [3, 4]: 22 mg/dL | BUN levels [3, 5]: 26 mg/dL | Urine protein/creatinine ratio [3]: 0.01

— US20230263822A1, “MODULATION OF FACTOR 11 EXPRESSION” (Ionis Pharmaceuticals, Inc., priority 2008, published 2023)
